pIC50: −log10 of the molar value.
target: T1, JAK3: Recombinant human kinase domain (Homo sapiens, UniProt P52333); assay: Determination of IC50 of Janus Kinase (JAK) inhibition, radioactive end-point 33P-ATP assay, JAK3; assay type: biochemical; settings: ATP 1.5 uM, peptide 50 uM, 20 minutes, read-out: JAK3-INHIB-DR/v1~NO ADDITIVE~Enzyme_Conc = 100
T1 construct: JAK3: Recombinant human kinase domain from Millipore (Cat #14-629) or prepared; purchased Millipore 14-629
T1 sequence (P52333 822-1111 limits assumed): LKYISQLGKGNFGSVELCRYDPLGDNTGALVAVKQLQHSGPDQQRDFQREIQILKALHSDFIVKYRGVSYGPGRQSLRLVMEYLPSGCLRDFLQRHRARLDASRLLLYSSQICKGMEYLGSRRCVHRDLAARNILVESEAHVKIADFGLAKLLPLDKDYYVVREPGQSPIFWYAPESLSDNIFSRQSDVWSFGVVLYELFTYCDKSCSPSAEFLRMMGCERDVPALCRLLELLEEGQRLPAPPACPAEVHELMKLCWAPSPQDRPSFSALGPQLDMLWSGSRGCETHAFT
Procedure: Determination of IC50 of Janus Kinase (JAK) Inhibition:
Assay conditions used are described below: • Assay Buffer: JAK Kinase Buffer: 50 mM Hepes [pH 7.2], 10 mM MgCl2, 1 mM DTT, 1 mg/ml BSA. The assay was carried out in this buffer. • Assay Format The kinase activity of all three JAK kinases was measured using a radioactive, end-point assay and with trace amounts of ^33P-ATP. The assays were carried out in 96-well polypropylene plates. Experimental Method:
All concentrations were final in the reaction mixture and all incubations were carried at room temperature. […] Final concentration of DMSO in the reaction was 10%. • 2) Compounds were preincubated with enzyme (0.5 nM JAK3 (commercially available), 0.2 nM JAK3 (prepared), 1 nM JAK2, 5 nM JAK1) for 10 minutes. • 3) Reactions were initiated by the addition of a cocktail of the two substrates (ATP and peptide premixed in the JAK Kinase Buffer). […] JAK1 assay was carried out at an ATP concentration of 10 uM and a peptide concentration of 50 uM. • 4) The duration of the assay for JAK2 and JAK3 is 20 minutes. JAK1 assay was carried out for 40 minutes. With all three enzymes, reactions were terminated by the addition of 0.5M EDTA to a final concentration of 100 mM. • 5) 25 ul of terminated reactions were transferred to 150 ul of a 7.5% (v/v) slurry of streptavidin-coated sepharose beads in MgCl2- and CaCl2-free 1× Phosphate Buffered Saline containing 50 mM of EDTA in 96-well, 1.2 um MultiScreen-BV filter plates. • 6) After a 30-minute incubation, the beads were washed under vacuum with the following buffers: • a. 3 to 4 washes with 200 ul of 2M NaCl. • b. 3 to 4 washes with 200 ul of 2M NaCl plus 1% (v/v) phosphoric acid. • c. 1 wash with water. • 7) Washed plates were dried in a 60° C. oven for between 1 to 2 hours. • 8) 70 ul of Microscint 20 scintillation fluid was added to each well of filter plates and after at least 30 minutes of incubation, radioactive counts were measured in a Perkinelmer microplate scintillation counter.

pIC50	Structure (SMILES)
9.43	COC[C@H](C)NC(=O)c1c[nH]c2ncc(-c3ncn4cc(F)ccc34)nc12 [Example I-41, 2-(6-Fluoro-imidazo[1,5-a]pyridin-1-yl)-5H-pyrrolo[2,3-b]pyrazine-7-carboxylic acid ((S)-2-methoxy-1-methyl-ethyl)-amide]
7.25	C[C@H](Cn1cccn1)NC(=O)c1c[nH]c2ncc(-c3nn(C)c4cc(F)ccc34)nc12 [Example I-133, 2-(6-Fluoro-1-methyl-1H-indazol-3-yl)-5H-pyrrolo[2,3-b]pyrazine-7-carboxylic acid ((R)-1-methyl-2-pyrazol-1-yl-ethyl)-amide]
8.90	Cc1nc(-c2cnc3[nH]cc(C(=O)N[C@H](C)C(=O)N4CC(C#N)C4)c3n2)c2ccc(F)cn12 [Example I-34, 2-(6-Fluoro-3-methyl-imidazo[1,5-a]pyridin-1-yl)-5H-pyrrolo[2,3-b]pyrazine-7-carboxylic acid [(R)-2-(3-cyano-azetidin-1-yl)-1-methyl-2-oxo-ethyl]-amide]
7.95	CC[C@H](COC)NC(=O)c1c[nH]c2ncc(-c3nn(C)c4cc(Cl)ccc34)nc12 [Example I-162, 2-(6-Chloro-1-methyl-1H-indazol-3-yl)-5H-pyrrolo[2,3-b]pyrazine-7-carboxylic acid ((R)-1-methoxymethyl-propyl)-amide]
8.68	C[C@@H](NC(=O)c1c[nH]c2ncc(-c3nn(CCN4CCOCC4)c4cc(Cl)ccc34)nc12)C(=O)N1CC(C#N)C1 [Example I-231, 2-[6-Chloro-1-(2-morpholin-4-yl-ethyl)-1H-indazol-3-yl]-5H-pyrrolo[2,3-b]pyrazine-7-carboxylic acid [(R)-2-(3-cyano-azetidin-1-yl)-1-methyl-2-oxo-ethyl]-amide]
6.78	C[C@@H](O)[C@@H](CO)NC(=O)c1c[nH]c2ncc(-c3nn(C)c4cc(F)ccc34)nc12 [Example I-176, 2-(6-Fluoro-1-methyl-1H-indazol-3-yl)-5H-pyrrolo[2,3-b]pyrazine-7-carboxylic acid ((1R,2R)-2-hydroxy-1-hydroxymethyl-propyl)-amide]
9.11	C[C@@H](NC(=O)c1c[nH]c2ncc(-c3nn(CC#N)c4cc(Cl)ccc34)nc12)C(=O)N1CC(C#N)C1 [Example I-93, 2-(6-Chloro-1-cyanomethyl-1H-indazol-3-yl)-5H-pyrrolo[2,3-b]pyrazine-7-carboxylic acid [(R)-2-(3-cyano-azetidin-1-yl)-1-methyl-2-oxo-ethyl]-amide]
6.84	C[C@@H](NC(=O)c1c[nH]c2ncc(-n3cnc4cc(Cl)ccc43)nc12)C(=O)N1CC(C#N)C1 [Example I-225, 2-(5-Chloro-benzoimidazol-1-yl)-5H-pyrrolo[2,3-b]pyrazine-7-carboxylic acid [(R)-2-(3-cyano-azetidin-1-yl)-1-methyl-2-oxo-ethyl]-amide]
8.90	C[C@@H](NC(=O)c1c[nH]c2ncc(-c3nc(S(C)(=O)=O)n4cc(F)ccc34)nc12)C(=O)N1CC(C#N)C1 [Example I-42, 2-(6-Fluoro-3-methanesulfonyl-imidazo[1,5-a]pyridin-1-yl)-5H-pyrrolo[2,3-b]pyrazine-7-carboxylic acid [(R)-2-(3-cyano-azetidin-1-yl)-1-methyl-2-oxo-ethyl]-amide]
9.27	COC[C@@H](NC(=O)c1c[nH]c2ncc(-c3nn(C)c4cc(Cl)ccc34)nc12)C(=O)N1CC(C#N)C1 [Example I-175, 2-(6-Chloro-1-methyl-1H-indazol-3-yl)-5H-pyrrolo[2,3-b]pyrazine-7-carboxylic acid [(R)-2-(3-cyano-azetidin-1-yl)-1-methoxymethyl-2-oxo-ethyl]-amide]
7.53	C[C@@H](NC(=O)c1c[nH]c2ncc(-c3nn(C)c4c3CCC(C)(C)C4)nc12)C(=O)N1CC(C#N)C1 [Example I-70, 2-(1,6,6-Trimethyl-4,5,6,7-tetrahydro-1H-indazol-3-yl)-5H-pyrrolo[2,3-b]pyrazine-7-carboxylic acid [(R)-2-(3-cyano-azetidin-1-yl)-1-methyl-2-oxo-ethyl]-amide]
7.54	CC(C)NC(=O)c1c[nH]c2ncc(-c3nn(CC4CC4)c4cc(Cl)ccc34)nc12 [Example I-309, 2-(6-Chloro-1-cyclopropylmethyl-1H-indazol-3-yl)-5H-pyrrolo[2,3-b]pyrazine-7-carboxylic acid isopropylamide]
8.66	N#CC1CCN(C(=O)[C@H](NC(=O)c2c[nH]c3ncc(-n4ncc5cc(Cl)ccc54)nc23)C2CC2)CC1 [Example I-66, 2-(5-Chloro-indazol-1-yl)-5H-pyrrolo[2,3-b]pyrazine-7-carboxylic acid [(R)-2-(4-cyano-piperidin-1-yl)-1-cyclopropyl-2-oxo-ethyl]-amide]
7.69	C[C@@H](NC(=O)c1c[nH]c2ncc(-c3nn(C)c4cc(Cl)ccc34)nc12)C(=O)N1CC2(COC2)C1 [Example I-27, 2-(6-Chloro-1-methyl-1H-indazol-3-yl)-5H-pyrrolo[2,3-b]pyrazine-7-carboxylic acid [(R)-1-methyl-2-(2-oxa-6-aza-spiro[3.3]hept-6-yl)-2-oxo-ethyl]-amide]
7.72	C[C@@H](NC(=O)c1c[nH]c2ncc(-c3nn(C)c4cc(Cl)ccc34)nc12)C(C)(C)O [Example I-12, 2-(6-Chloro-1-methyl-1H-indazol-3-yl)-5H-pyrrolo[2,3-b]pyrazine-7-carboxylic acid ((R)-2-hydroxy-1,2-dimethyl-propyl)-amide]
8.89	C[C@@H](NC(=O)c1c[nH]c2ncc(-c3nn(Cc4ccccn4)c4cc(Cl)ccc34)nc12)C(=O)N1CC(C#N)C1 [Example I-233, 2-(6-Chloro-1-pyridin-2-ylmethyl-1H-indazol-3-yl)-5H-pyrrolo[2,3-b]pyrazine-7-carboxylic acid [(R)-2-(3-cyano-azetidin-1-yl)-1-methyl-2-oxo-ethyl]-amide]
8.28	Cn1nc(-c2cnc3[nH]cc(C(=O)NC4CCCC4)c3n2)c2ccc(Cl)cc21 [Example I-106, 2-(6-Chloro-1-methyl-1H-indazol-3-yl)-5H-pyrrolo[2,3-b]pyrazine-7-carboxylic acid cyclopentylamide]
8.30	CC(CC(F)(F)F)NC(=O)c1c[nH]c2ncc(-c3nn(C)c4cc(F)ccc34)nc12 (centres unmarked) [Example I-185, 2-(6-Fluoro-1-methyl-1H-indazol-3-yl)-5H-pyrrolo[2,3-b]pyrazine-7-carboxylic acid (3,3,3-trifluoro-1-methyl-propyl)-amide]
8.68	C[C@@H](NC(=O)c1c[nH]c2ncc(-c3nn(CC(=O)N4CCOCC4)c4cc(Cl)ccc34)nc12)C(=O)N1CC(C#N)C1 [Example I-228, 2-[6-Chloro-1-(2-morpholin-4-yl-2-oxo-ethyl)-1H-indazol-3-yl]-5H-pyrrolo[2,3-b]pyrazine-7-carboxylic acid [(R)-2-(3-cyano-azetidin-1-yl)-1-methyl-2-oxo-ethyl]-amide]
8.67	Cn1nc(-c2cnc3[nH]cc(C(=O)N[C@@H](C(=O)N4CCC(C#N)CC4)C(C)(C)C)c3n2)c2ccc(Cl)cc21 [Example I-19, 2-(6-Chloro-1-methyl-1H-indazol-3-yl)-5H-pyrrolo[2,3-b]pyrazine-7-carboxylic acid [(R)-1-(4-cyano-piperidine-1-carbonyl)-2,2-dimethyl-propyl]-amide]
8.25	CC(NC(=O)c1c[nH]c2ncc(-c3nn(C)c4cc(F)ccc34)nc12)c1ncco1 (centres unmarked) [Example I-49, 2-(6-Fluoro-1-methyl-1H-indazol-3-yl)-5H-pyrrolo[2,3-b]pyrazine-7-carboxylic acid (1-oxazol-2-yl-ethyl)-amide]
9.23	C[C@@H](NC(=O)c1c[nH]c2ncc(-c3n[nH]c4cc(Cl)ccc34)nc12)C(=O)N1CC(C#N)C1 [Example I-23, 2-(6-Chloro-1H-indazol-3-yl)-5H-pyrrolo[2,3-b]pyrazine-7-carboxylic acid [(R)-2-(3-cyano-azetidin-1-yl)-1-methyl-2-oxo-ethyl]-amide]
8.41	CC[C@@H](C)NC(=O)c1c[nH]c2ncc(-c3nn(C)c4cc(F)ccc34)nc12 [Example I-180, 2-(6-Fluoro-1-methyl-1H-indazol-3-yl)-5H-pyrrolo[2,3-b]pyrazine-7-carboxylic acid ((R)-sec-butyl)-amide]
9.24	Cn1nc(-c2cnc3[nH]cc(C(=O)N[C@@H](C(=O)N4CCC(C#N)CC4)C4CC4)c3n2)c2ccc(Cl)cc21 [Example I-2, 2-(6-Chloro-1-methyl-1H-indazol-3-yl)-5H-pyrrolo[2,3-b]pyrazine-7-carboxylic acid [(R)-2-(4-cyano-piperidin-1-yl)-1-cyclopropyl-2-oxo-ethyl]-amide]
8.07	Cn1nc(-c2cnc3[nH]cc(C(=O)NCC4CC4)c3n2)c2ccc(F)cc21 [Example I-117, 2-(6-Fluoro-1-methyl-1H-indazol-3-yl)-5H-pyrrolo[2,3-b]pyrazine-7-carboxylic acid cyclopropylmethyl-amide]
8.04	C[C@H](NC(=O)c1c[nH]c2ncc(-c3nn(C)c4cc(F)ccc34)nc12)c1ncco1 [Example I-51, 2-(6-Fluoro-1-methyl-1H-indazol-3-yl)-5H-pyrrolo[2,3-b]pyrazine-7-carboxylic acid ((S)-1-oxazol-2-yl-ethyl)-amide]
7.76	C[C@@H](NC(=O)c1c[nH]c2ncc(-c3nn(C)c4cc(Cl)ccc34)nc12)[C@@H]1C[C@@H]1C#N (single isomer, unassigned) [Example I-206]
7.24	C[C@@H](NC(=O)c1c[nH]c2ncc(-c3nn(C)c4cc(Cl)cc(Cl)c34)nc12)C(=O)N1CC(C#N)C1 [Example I-97, 2-(4,6-Dichloro-1-methyl-1H-indazol-3-yl)-5H-pyrrolo[2,3-b]pyrazine-7-carboxylic acid [(R)-2-(3-cyano-azetidin-1-yl)-1-methyl-2-oxo-ethyl]-amide]
8.74	COC[C@H](C)NC(=O)c1c[nH]c2ncc(-c3nn(CCN(C)C)c4cc(F)ccc34)nc12 [Example I-239, 2-[1-(2-Dimethylamino-ethyl)-6-fluoro-1H-indazol-3-yl]-5H-pyrrolo[2,3-b]pyrazine-7-carboxylic acid ((S)-2-methoxy-1-methyl-ethyl)-amide]

Reference: patent US8658646B2, “Pyrrolopyrazine kinase inhibitors” (Hoffmann-LaRoche Inc., priority 2011, dated 2014)
